# In patent publication US10081632B2, “Substituted tetrahydropyrido[3′,2′:4,5]pyrrolo[1,2-α]pyrazine-2-carboxamides as RSK inhibitors” (Phoenix Molecular Designs, priority 2016, dated 2018):
# “Also recorded” adds a separate entry of the source. Counter-ions that a name gives are not always drawn. Like-named read-outs stand apart in the source and are kept apart here.
# Assays:
# [1] = Solubility assessment, 20 mg/ml solution; assay type: physicochemical; conditions: hydrochloride salt
# How it was run: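 Compounds from 100 mM DMSO stocks diluted to 20 mg/ml in DMEM with FBS and penicillin/streptomycin, vortexed and checked visually for precipitate. One compound instead diluted to 20 mg/ml in phosphate-buffered saline, solution pH 2.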
# HCC1143 cells = assay: Monolayer growth inhibition, Alamar blue assay; assay type: cell-based; conditions: Homo sapiens; HCC1143 (TNBC), 5 days, single dose on day 1
# Description: (§1) In all instances a single dose was given on day 1 of the experiment.
# HCC1937 cells [2] = assay: Monolayer growth inhibition, Alamar blue assay; assay type: cell-based; conditions: Homo sapiens; HCC1937 (TNBC, BRCA Mutant), 5 days, single dose on day 1
# Description: as §1
# JIMT-1 cells [3] = assay: Monolayer growth inhibition, Alamar blue assay; assay type: cell-based; conditions: Homo sapiens; JIMT-1 (HER2), 5 days, single dose on day 1
# Description: as §1
# MDA-MB-435 cells = assay: Monolayer growth inhibition, Alamar blue assay; assay type: cell-based; conditions: Homo sapiens; MDA-MB-435 (Melanoma), 5 days, single dose on day 1
# Description: as §1
# PC3 cells = assay: Monolayer growth inhibition, Alamar blue assay; assay type: cell-based; conditions: Homo sapiens, PC-3; PC3 (Prostate), 5 days, single dose on day 1
# Description: as §1
# SUM149 cells = assay: Monolayer growth inhibition, Alamar blue assay; assay type: cell-based; conditions: Homo sapiens; SUM149 (TNBC, BRCA Mutant), 5 days, single dose on day 1
# Description: as §1
# SUM149-PTXR cells = assay: Monolayer growth inhibition, Alamar blue assay; assay type: cell-based, Human; conditions: Homo sapiens; SUM149-PTXR (TNBC, BRCA Mutant), 5 days, single dose on day 1
# Description: as §1
# T47D cells [4] = assay: Monolayer growth inhibition, Alamar blue assay; assay type: cell-based, Human; conditions: Homo sapiens; T47D (ER/PR), 5 days, single dose on day 1
# Description: as §1
# HCC1937 cells [5] = assay: Monolayer growth inhibition, crystal violet assay; assay type: cell-based; conditions: Homo sapiens; HCC1937 (TNBC, BRCA Mutant), 5 days, single dose on day 1
# Description: (§2) In all instances a single dose was given on day 1 of the experiment. […] Complete (100%) growth suppression was achievable with several of the compounds in multiple different cell lines.
# JIMT-1 cells [6] = assay: Monolayer growth inhibition, crystal violet assay; assay type: cell-based; conditions: Homo sapiens; JIMT-1 (HER2), 5 days, single dose on day 1
# Description: as §2
# MDA-MB-468 cells = assay: Monolayer growth inhibition, crystal violet assay; assay type: cell-based; conditions: Homo sapiens; MDA-MB-468 (TNBC), 5 days, single dose on day 1
# Description: as §2
# T47D cells [7] = assay: Monolayer growth inhibition, crystal violet assay; assay type: cell-based; conditions: Homo sapiens; T47D (ER/PR), 5 days, single dose on day 1
# Description: as §2
# MDA-MB-231 cells [8] = assay: Soft agar growth inhibition assay; assay type: cell-based; conditions: Homo sapiens
# CD34+ cells = assay: Colony forming unit hematopoietic stem cell assay; assay type: cell-based, human; conditions: for IC50: Homo sapiens, Hematopoietic stem cell, CD34+ cells from peripheral blood, read-out: CD34+ (PB) IC50; for Therapeutic Window: ratio IC50 against CD34+ cells and MDA-MB-231 cells (SA)
# Description: The hematopoietic colony forming cell assay was conducted based on a protocol outlined by StemCell Technologies. […] Following the addition of CD34^+ cells isolated from human cord blood or peripheral blood (StemCell Technologies) at a final concentration of 5×10^2 cells per dish, the tubes were vortexed and allowed to stand for 5 minutes at room temperature. Next, the MethoCult mixtures were dispensed into 35 mm dishes (Corning Incorporated) through blunt end needles (StemCell Technologies) and 5 ml syringes (BD Biosciences) at a volume of 1.1 ml per dish. The medium was evenly distributed across the surface of each dish by gentle tilting and rotation. The dishes were then placed in a 100 mm culture dish (Grenier Bio-One) containing additional 35 mm dishes with sterile water to maintain humidity. […] The number of myeloid and erythroid derived colonies in both the treated and control dishes were counted and compared.
# [9] = system: P-YB-1 in MDA-MB-231 xenografts; assay: Pharmacodynamics, P-YB-1 signalling in MDA-MB-231 xenograft tumors (immunoblotting); conditions: 100 mg/kg BID PO for three days
# Description: Following desired experimental conditions, breast cancer cell lines grown and treated in 6 well plates or 100 mm culture dishes (Grenier Bio-One) were placed on ice and the supernatant from each well was removed and the cells were washed in cold PBS. Following removal of PBS, cells were exposed to radioimmunoprecipitation assay (RIPA) buffer (50 mM Tris-HCl (pH 8), 150 mM NaCl, 1% NP-40, 0.5% sodium deoxycholate, 0.1% SDS; Fisher Scientific) supplemented with 1% phosphatase inhibitor (Fisher Scientific) and 1% protease inhibitor (Fisher Scientific) for 10 minutes. Samples were transferred to eppendorf tubes, vortexed and then centrifuged at 14 000 rpm for 10 minutes. Supernatants were collected as whole cell lysates. For mouse tumour tissues, each sample was place in a 35 mm culture dish with complete RIPA lysis buffer. […]
# To begin, the protein content of the lysates was measured using the Bicinchoninic Acid (BCA) Protein Assay Kit (Pierce), which included a protein standard curve generated with bovine serum albumin. […] For certain immunoblots, bands of proteins of interest were scanned and band intensity ratios were determined by densitometric analysis (ImageJ). […] To assess whether cells are actively undergoing cell death, the activity of poly ADP ribose polymerase (PARP) (1:1000 CST) was also measured using the immunoblotting method.
# Cell signalling was evaluated by immunoblotting. […]
# MDA-MB-231 cells [10] = assay: Combination with paclitaxel, monolayer growth (crystal violet); conditions: MDA-MB-231 cells + 0.3 nM PTX, 5 days
# Description: 1×10^3 cells per well were seeded for a final volume of 200 μl per well and plates were incubated for 5 days at 37° C. in a humidified incubator with 5% CO2. Following the incubation period, cell survival was quantified by Alamar blue assay (Life Technologies). Briefly, media from each well was replaced with 100 μl of phosphate buffer saline (PBS, Life Technologies) and cells were incubated with 5% Alamar blue, which incorporates a propriety redox indicator that changes colour in response to metabolic activity, for up to 2 hours. During this period of incubation, the absorbance at 570 nm and 600 nm was measured at various time points, depending on the cell line or sample. Percent survival was calculated by comparing the absorbance ratio of the test well to the control well multiplied by 100%, as indicated in the following formula:
# Following, plates were prepared for crystal violet staining. To begin, 100 μl of an 8% formaldehyde (Alfa Aesar) solution diluted in PBS was added to each well and plates were stored at 4° C. overnight. Next, the formaldehyde solution was discarded and the wells were washed with 200 μl ultrapure water per well three times. Following, 50 μl of a 0.5% crystal violet solution (0.5% w/v crystal violet (Alfa Aesar), 25% methanol (VWR)) was added to each well and incubated at room temperature for 20 minutes. The crystal violet solution was discarded and wells were washed with 200 μl ultrapure water per well three times. Next, 50 μl of a 5% sodium dodecyl sulphate (SDS) (Alfa Aesar) was added to each well and the absorbance at 590 nm was measured.
# [11] = MDA-MB-231, growth in soft agar (SA), read-out: MDA-MB-231 IC50 (SA)
structure (smiles),measurement,setting,value
"C[C@@H]1CNC(=O)c2cc3ccc(C(=O)Nc4cnn(Cc5ccc(N)cc5)c4)nc3n21 [Compound 25, (R)—N-(1-(4-aminobenzyl)-1H-pyrazol-4-yl)-9-methyl-6-oxo-6,7,8,9-tetrahydropyrido[3′,2′:4,5]pyrrolo[1,2-a]pyrazine-2-carboxamide hydrochloride salt]","Solubility, 20 mg/ml Solution",[1]; 100 mM in DMSO diluted in DMEM growth media to 20 mg/ml,Soluble; also recorded: superior solubility
same,pH of 20 mg/ml solution,"[1]; DMSO stock diluted in DMEM, pH test strips",2
same,IC50,HCC1143 cells,5.1 ± 0.3 µM
same,IC50,HCC1937 cells [2],13.7 ± 3.8 µM
same,IC50,JIMT-1 cells [3],19.9 ± 6.5 µM
same,IC50,MDA-MB-435 cells,0.9 ± 0.1 µM
same,IC50,PC3 cells,8.5 ± 0.8 µM
same,IC50,SUM149 cells,10.4 ± 3.5 µM
same,IC50,SUM149-PTXR cells,5.2 ± 4.2 µM
same,IC50,T47D cells [4],8.9 ± 0.8 µM
same,IC50,HCC1937 cells [5],8.4 ± 1.9 µM
same,IC50,JIMT-1 cells [6],15.2 ± 2.6 µM
same,IC50,MDA-MB-468 cells,2 ± 0.4 µM
same,IC50,T47D cells [7],3.1 ± 0.1 µM
same,IC50,MDA-MB-231 cells [8]; [11],0.2 µM
same,IC50,"MDA-MB-231 cells [8]; MDA-MB-231 (TNBC), 14-22 days, read-out: IC50 Values - Soft Agar (14-22 Days)",0.2 ± 0.1 µM
same,IC50,CD34+ cells,> 20 µM
same,Therapeutic Window,CD34+ cells; hydrochloride salt,>100X
same,Tumors with reduced cell signaling through loss of P-YB-1,[9],3/3
"CC(=O)O[C@H]1C(=O)[C@@]2(C)[C@H]([C@H](OC(=O)c3ccccc3)[C@]3(O)C[C@H](OC(=O)[C@H](O)[C@@H](NC(=O)c4ccccc4)c4ccccc4)C(C)=C1C3(C)C)[C@]1(OC(C)=O)CO[C@@H]1C[C@@H]2O [Taxol, paclitaxel, reference compound]",IC50,MDA-MB-231 cells [8]; [11],0.0014 µM
same,IC50,CD34+ cells,0.0097 µM
same,Therapeutic Window,CD34+ cells,6.9X
same,% Survival,MDA-MB-231 cells [10],MDA-MB-231 cells + 0.3 nM PTX: % Survival = 47.7%
